The source of these data is patent US20040034099A1, “Pharmaceutical composition” (priority 2002, published 2004).

The series in a line: Excipient screen (fillers, disintegrants, glidants, lubricants): tablets evaluated at accelerated conditions. The series is classed as physicochemical. To be noted: tablets at accelerated conditions (40° C./75% RH); for filler the active ingredient is compatible with: physical characteristics and content of active ingredient. As to the method: Experiments to screen fillers, disintegrants, glidants and lubricants were conducted for the composition according to the present invention. Tablets were evaluated for physical characteristics and content of active ingredient at accelerated conditions (40° C./75% RH). The assay values were analysed statistically. […] Of all lubricants examined, chlorambucil was most compatible with stearic acid.

`O=C(O)CCCc1ccc(N(CCCl)CCCl)cc1` [chlorambucil, 4-[bis(2-chloroethyl)amino]-benzenebutanoic acid]: the “filler the active ingredient is compatible with” value was “a mixture of anhydrous lactose and microcrystalline cellulose”. Besides, the “lubricant the active ingredient is most compatible with” value (of all lubricants examined) is reported as “stearic acid”.

`N[C@@H](Cc1ccc(N(CCCl)CCCl)cc1)C(=O)O` [melphalan, 4-[bis(2-chloroethyl)amino]-L-phenylalanine]: the “filler the active ingredient is compatible with” value is “microcrystalline cellulose”.
